Consider four compounds from ChEMBL document CHEMBL1135923, “Conceptually new low-calcemic oxime analogues of the hormone 1 alpha,25-dihydroxyvitamin D(3): synthesis and biological testing” (J Med Chem, 2002).

One experiment addresses T1, Vitamin D3 receptor (Rattus norvegicus) (UniProt P13053).
T1 sequence (whole entry): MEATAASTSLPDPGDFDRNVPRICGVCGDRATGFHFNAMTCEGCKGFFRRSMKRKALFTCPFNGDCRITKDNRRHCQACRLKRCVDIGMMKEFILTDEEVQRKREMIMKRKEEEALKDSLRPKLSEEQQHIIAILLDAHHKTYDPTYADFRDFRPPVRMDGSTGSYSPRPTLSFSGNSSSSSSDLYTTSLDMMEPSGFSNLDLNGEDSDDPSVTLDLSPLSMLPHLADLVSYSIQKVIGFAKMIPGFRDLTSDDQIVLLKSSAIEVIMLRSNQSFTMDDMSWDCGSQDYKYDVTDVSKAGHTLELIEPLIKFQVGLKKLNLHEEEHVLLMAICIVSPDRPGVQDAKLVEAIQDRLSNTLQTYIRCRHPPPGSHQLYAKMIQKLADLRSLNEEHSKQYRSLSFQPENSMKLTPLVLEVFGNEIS
Description: In vitro vitamin D receptor-mediated transcriptional activity in rat osteosarcoma ROS 17/2.8 cells.
Regarding `C=C1/C(=C\C=C2/CCC[C@]3(C)[C@@H]([C@H](C)CCCC(C)(C)O)CC[C@@H]23)C[C@@H](O)C[C@@H]1O`, the ED50 is 0.4 nM.
`C=C1/C(=C\C=C2/CCC[C@]3(C)C([C@H](C)CCCC(=O)C(C)(C)C)=CC[C@@H]23)C[C@H](O)C[C@H]1O` came in with an ED50 of 0.1 nM.
`C=C1/C(=C\C=C2/CCC[C@]3(C)C([C@H](C)CCC/C(=N\OC)C(C)(C)C)=CC[C@@H]23)C[C@H](O)C[C@H]1O` returned an ED50 of 2 nM.
In turn, `C=C1/C(=C\C=C2/CCC[C@]3(C)C([C@H](C)CCC/C(=N\O)C(C)(C)C)=CC[C@@H]23)C[C@H](O)C[C@H]1O` displayed an ED50 of 10 nM.

For a further experiment, the target named is T1, Vitamin D3 receptor (Rattus norvegicus). In words: Percent relative binding affinity for vitamin D receptor VDR. Type of experiment: functional.
On to `C=C1/C(=C\C=C2/CCC[C@]3(C)C([C@H](C)CCCC(=O)C(C)(C)C)=CC[C@@H]23)C[C@H](O)C[C@H]1O`, for which the RBA amounted to 35%.
Still for that read-out and setting: next, `C=C1/C(=C\C=C2/CCC[C@]3(C)C([C@H](C)CCC/C(=N\OC)C(C)(C)C)=CC[C@@H]23)C[C@H](O)C[C@H]1O`: less than 3%.
In turn, `C=C1/C(=C\C=C2/CCC[C@]3(C)C([C@H](C)CCC/C(=N\O)C(C)(C)C)=CC[C@@H]23)C[C@H](O)C[C@H]1O` showed an RBA of 3%.
